Experiments:
UACC257 xenografts = experiment: Xenograft tumor study; type: in vivo, mice; settings: 2,4-DNP 20 mg/kg/day or vemurafenib 75 mg/kg/day by oral gavage
UACC257 cells [1] = experiment: Lactate assay after 2,4-DNP; type: cell-based; settings: 50 μg/mL, 24 h
Experimental: (§1) FIG. 7E are histograms showing the effects of 2,4-DNP (50 μg/mL, 24 h) on the lactate levels in the indicated cell lines in vitro.
(§2) Indicated cell lines were plated in complete media overnight. […] Results were normalized to cell number. All assays were performed in logarithmically growing cells.

A375P cells [2] = experiment: Lactate assay after 2,4-DNP; type: cell-based; settings: 50 μg/mL, 24 h
Experimental: as §1, §2

melanoma cells (M14) = experiment: Cell number, mitochondrial inhibitors combined with PLX4720; settings: in vitro; cell number after 72 hrs
Experimental: (§3) Melanoma cell were treated for 24 h with PLX4720 then mitochondrial uncoupler for 48 h, prior to estimation of cell number.
as §3
(§4) Cell number was calculated using the CYQUANT® assay (INVITROGEN™) or crystal violet staining. Lactate measurements were done using the Lactate Assay (BioVision or SIGMA®) per manufacturer's protocols. Indicated cell lines were plated in complete media overnight. Media was changed to serum free-media to avoid interference with the assay for 16 h with either PLX4720 (3 μM) or PLX4032 (1 μM) or vehicle control prior to harvesting cells and measurement of lactate. Results were normalized to cell number. All assays were performed in logarithmically growing cells.

UACC257 cells [3] = experiment: ATP assay after 2,4-DNP; type: cell-based; settings: 50 μg/mL, 24 h
Experimental: (§5) FIG. 7D are histograms showing the effects of 2,4-DNP (50 μg/mL, 24 h) on ATP in the indicated cell lines in vitro.
(§6) Glucose uptake (relative to total cell numbers) was measured over 24 h as trace [^3H]-deoxyglucose uptake in cells growing in glucose-containing media followed by plate harvest and subsequent analysis on a PerkinElmer® Wallac 1450 Microbeta scintillation counter. Oxygen consumption was measured using XF Flux Analyzer (Seahorse Biosciences) using standard protocols. ATP measurements were conducted using ENLITEN® ATP assay (PROMEGA®) according to standard trichloroacetic acid (TCA) extraction protocols.

A375P cells [4] = experiment: ATP assay after 2,4-DNP; type: cell-based; settings: 50 μg/mL, 24 h
Experimental: as §5, §6

[5] = tested on: melanoma cells or primary human melanocytes; experiment: Cell number after 2,4-DNP, melanoma cells versus melanocytes; type: cell-based; settings: 50 μg/mL, 72 h
Experimental: FIG. 13 are histograms showing the number of melanoma cells or primary human melanocytes following treatment with 2,4-DNP (50 μg/mL) for 72 h. **, p<0.01 compared to primary melanocytes treated with 2,4-DNP.
as §2

[6] = tested on: BRAF(V600E)+vector and BRAF(V600E)+MITF melanoma cells; experiment: Cell number after 2,4-DNP in isogenic cells; type: cell-based, human; settings: 72 h
Experimental: FIG. 7A are histograms showing the number of BRAF(V600E)+vector and BRAF(V600E)+MITF melanoma cells following treatment with 2,4-DNP with indicated dose for 72 h.
as §2

A375P xenografts = experiment: Xenograft tumor study; type: in vivo, mice; settings: 2,4-DNP 20 mg/kg/day by oral gavage
Experimental: FIG. 7G are line graphs showing the effect of 2,4-DNP (20 mg/kg/day) or vemurafenib (75 mg/kg/day) on murine melanoma xenografts of A375P cell line (n=7-8 per group). **, p<0.01 compared to vehicle group; ***, p<0.001 compared to vehicle group.
All mouse experiments (tumor nucleation studies and longitudinal drug treatment) were done in accordance with Institutional Animal Care and Use Committee (IACUC) approved animal protocols at Dana-Farber Cancer Institute. Engineered melanoma cells with BRAF(V600E)+vector or +MITF were inoculated subcutaneously at three flank positions (100,000 cells in 100 μL PBS per site) in NCR-FoxNu (male, 6 weeks) animals. Tumor establishment was monitored and experiment was terminated after 10 weeks. For longitudinal tumor treatment studies, melanoma cell lines (A375P and UACC257, both carrying pFUW-mCherry-puro-LUC) were injected subcutaneously into NCR-FoxNu mice (5,000,000 cells in 100 μL PBS with growth factor reduced matrigel). Initial tumor establishment and growth visualized by in vivo imaging by comparing signal obtained seven (7) days apart. […] Treatment with vemurafenib (75 mg/kg/day) or 2,4-DNP (20 mg/kg/day) was administered by oral gavage in 0.5% methyl cellulose and tumor size measured by calipers twice weekly. Mean response measured based on cohorts of 6-7 mice for each arm (and each cell line).

[7] = tested on: BRAF mutant melanoma M14 cells; experiment: PGC1β mRNA time course; type: cell-based; settings: over 24 hours
PGC1α promoter = PGC1α promoter luciferase assay; type: cell-based; settings: UACC-62 cells; 48 h; wild-type promoter
Experimental: The murine PGC1α promoter was obtained from ADDGENE. Mutant promoters were verified by sequencing. UACC-62 cells were transfected with each promoter construct, pRL-CMV Renilla control and a M-MITF overexpression vector. PLX4720 treatment was for 48 h. Results reported are averages of at least three independent experiments, normalized for transfection efficiency using Renilla luciferase.

[8] = tested on: BRAF mutant melanoma cell line UACC62; experiment: Electron microscopy, mitochondrial number; type: cell-based; settings: 3 μM, 72 hrs
Experimental: Electron microscopy of UACC-62 melanoma cells treated with vehicle or PLX4720 (3 μM, 72 hrs) was performed at Massachusetts General Hospital's PMB Microscopy Core. Cells were fixed for 1 hr at room temp in 2.0% glutaraldehyde in 0.1 M sodium cacodylate buffer, pH 7.4 (Electron Microscopy Sciences, Hatfield, Pa.). Cells were rinsed in buffer, scraped and pelleted. The pellets were treated with 1.0% osmium tetroxide (EMS) in cacodylate buffer for 1 hr at room temp. They were rinsed and then resuspended in 2.0% agarose for ease of handling. Small pieces were dehydrated through a graded series of ethanol, then infiltrated with eponate resin (Ted Pella, Redding, Calif.) overnight at room temp. They were then embedded in resin overnight at 60° C. Thin sections were cut on a Leica UC6 ultramicrotome, collected onto formvar-carbon coated slot grids and post-stained with uranyl acetate and lead citrate. […] Images were collected with an AMT digital imaging system (Advanced Microscopy Techniques, Danvers, Mass.). Mitochondrial density was calculated by morphometrics by standard protocols.

[9] = tested on: melanoma cell line that does not contain the BRAF mutation; experiment: phospho-ERK Western blot; type: cell-based; settings: melanoma cell line without BRAF mutation
Experimental: FIG. 1G are representative Western blots showing activated ERK activity in cells of FIG. 1f using phospho-ERK antibodies.
(§7) Whole cell lysates were prepared in lysis buffer supplemented with protease and phosphatase inhibitors (Roche). Equal amounts of protein were resolved by electrophoresis on gradient gels (Bio-Rad).
(§8) Melanoma biopsies prior and during treatment were sectioned, embedded in paraffin and stained with the phospho-ERK1/2 antibody (Cell Signaling Technology). PLX4720 was used at 1 μM concentration in all assays, whereas control samples were treated with an equal volume of DMSO.

[10] = tested on: BRAF mutant colon cancer cell lines; experiment: phospho-ERK Western blot; type: cell-based; settings: two BRAF mutant colon cancer cell lines; 1 μM, 24 h
Experimental: FIG. 2B are representative Western blots showing the ERK activity in melanoma or colon cancer cells treated with PLX4720 (1 μM) for 24 h.
as §7, §8

BRAF wild-type melanoma = experiment: PGC1α mRNA by quantitative PCR; type: cell-based; settings: 1 μM, 24 h
[11] = tested on: BRAF mutant (UACC-62 and UACC-257) melanoma cell lines; experiment: MITOTRACKER Green flow cytometry (mitochondrial density); type: cell-based; settings: 1 μM, 72 h; two BRAF mutant melanomas
Experimental: (§9) MITOTRACKER® Red, Green and MITOSOX™ were obtained from INVITROGEN™ using manufacturer's recommended protocols. Mean fluorescence was determined by FlowJo software and normalized to vehicle-treated cells.

[12] = tested on: BRAF wild-type (MeWo) melanoma cell line; experiment: as above; type: cell-based; settings: 1 μM, 72 h
Experimental: as §9

[13] = tested on: melanomas with BRAF mutations; experiment: PGC1α mRNA by quantitative PCR; type: cell-based; settings: 1 μM, 24 h
[14] = tested on: BRAF mutant (UACC-62) melanoma cell line; experiment: MITOTRACKER Red flow cytometry; type: cell-based; settings: 1 μM, 72 h
Experimental: as §9

[15] = tested on: BRAF mutant colon cancer cell lines; experiment: PGC1α mRNA by quantitative PCR; type: cell-based; settings: two BRAF mutant colon cancer cell lines; 1 μM, 24 h
[16] = tested on: melanoma cell line that does not contain the BRAF mutation; experiment: Lactate assay; type: cell-based; settings: melanoma cell line without BRAF mutation; 16 hours
Experimental: (§10) FIG. 1F are histograms showing the lactate levels in media conditioned from the indicated cell lines treated with PLX4720 or vehicle control for 16 hours.
as §4

BRAF mutant melanomas [17] = experiment: Lactate assay; type: cell-based; settings: all BRAF mutant melanomas evaluated; 16 hours
Experimental: as §10, §4

[18] = tested on: BRAF mutant (UACC-62) melanoma cell line; experiment: MITOSOX fluorescence assay; type: cell-based; settings: 1 μM, 72 h
Experimental: as §9

UACC-257 cells = experiment: Pigmentation of cell pellets; type: cell-based; settings: 72 h
Source text: Equal number of cells was pelleted by centrifugation.

BRAF mutant melanomas [19] = experiment: Gene set enrichment analysis of melanoma cell lines treated with vemurafenib; type: cell-based; settings: PLX4032 treated melanoma cell lines (n = 6)
[20] = tested on: BRAF(V600E) parental cells; experiment: ATP assay in isogenic cells; type: cell-based, human; settings: 1 μM, 24 h
Experimental: FIG. 6G are histograms showing the ATP levels, normalized to cell number in BRAF(V600E)+vector and BRAF(V600E)+MITF treated with PLX4032 (1 μM) for 24 h. ***, p<0.001 compared to control cells.
as §6

## O=[N+]([O-])c1ccc(O)c([N+](=O)[O-])c1 [2,4-DNP, 2,4-dinitrophenol]
UACC257 xenografts
  tumor growth: profoundly inhibited tumor growth
UACC257 cells [1]
  lactate: increases
A375P cells [2]
  increases in lactate: not
Melanoma cells (M14)
  Combination Index with PLX4720 (additively enhanced the efficacy of PLX4720): 0.9
UACC257 cells [3]
  ATP: decrease
A375P cells [4]
  decrease in ATP: not
[5]
  sensitivity of melanoma cells compared to primary melanocytes (cell number): more sensitive to DNP than primary melanocytes, except A375P
[6]
  sensitivity of BRAF(V600E)+MITF cells versus BRAF(V600E)+vector cells (cell number): significantly more sensitive
A375P xenografts
  tumor growth: insensitive

## CCCS(=O)(=O)Nc1ccc(F)c(C(=O)c2c[nH]c3ncc(Cl)cc23)c1F [PLX4720, N-[3-[(5-Chloro-1H-pyrrolo[2,3-b]pyridin-3-yl)carbonyl]-2,4-difluorophenyl]-1-propanesulfonamide]
[7]
  PGC1β mRNA: no change
PGC1α promoter
  activity of PGC1α promoter upstream of luciferase: induction of the wild-type promoter
[8]
  number of mitochondria per cell: significant increase
[9]
  ERK signaling: inability of PLX4720 to suppress ERK signaling
[10]
  ERK phosphorylation: suppression of ERK phosphorylation similar to that seen in melanomas
BRAF wild-type melanoma
  expression of PGC1α: No change
[11]
  mitochondrial density (MITOTRACKER Green): increased
[12]
  mitochondrial density (MITOTRACKER Green): did not affect
[13]; M14 cells, control siRNA
  PGC1α mRNA: strongly induced
[13]; UACC62 cells, control siRNA
  induction of PGC1α mRNA: 3 fold
[13]; all melanomas with BRAF mutations
  increase in PGC1α mRNA: 3-14 fold
[14]
  MITOTRACKER Red fluorescence (mitochondrial activity and mass): induced
[15]
  PGC1α expression: no effect
[16]
  lactate levels: did not change
BRAF mutant melanomas [17]
  lactate levels: reduced
[18]
  production of mitochondrial oxidative stress (MITOSOX): increased
UACC-257 cells
  pigmentation: increased pigmentation

## CCCS(=O)(=O)Nc1ccc(F)c(C(=O)c2c[nH]c3ncc(-c4ccc(Cl)cc4)cc23)c1F [vemurafenib]
BRAF mutant melanomas [19]; gene set size 15
  ES, CANCERDRUGS_PROBCELL_UP: −0.6598
  NES, CANCERDRUGS_PROBCELL_UP: −1.791
BRAF mutant melanomas [19]; gene set size 17
  ES, CAMPTOTHECIN_PROBCELL_UP: −0.6506
  NES, CAMPTOTHECIN_PROBCELL_UP: −1.802
BRAF mutant melanomas [19]; gene set size 19
  ES, ATP_SYNTHESIS: −0.6141
  ES, FLAGELLAR_ASSEMBLY: −0.6141
  ES, TYPE_III_SECRETION_SYSTEM: −0.6141
  NES, ATP_SYNTHESIS: −1.75
  NES, FLAGELLAR_ASSEMBLY: −1.8
  NES, TYPE_III_SECRETION_SYSTEM: −1.739
BRAF mutant melanomas [19]; gene set size 20
  ES, CITRATE_CYCLE_TCA_CYCLE: −0.8827
  ES, PHOTOSYNTHESIS: −0.6181
  NES, CITRATE_CYCLE_TCA_CYCLE: −2.017
  NES, PHOTOSYNTHESIS: −1.797
BRAF mutant melanomas [19]; gene set size 23
  ES, BRENTANI_TRANSPORT_OF_VESICLES: −0.604
  NES, BRENTANI_TRANSPORT_OF_VESICLES: −1.772
BRAF mutant melanomas [19]; gene set size 25
  ES, HSA00020_CITRATE_CYCLE: −0.6303
  NES, HSA00020_CITRATE_CYCLE: −1.94
BRAF mutant melanomas [19]; gene set size 29
  ES, HSA00640_PROPANOATE_METABOLISM: −0.5472
  NES, HSA00640_PROPANOATE_METABOLISM: −1.733
BRAF mutant melanomas [19]; gene set size 35
  ES, VALINE_LEUCINE_AND_ISOLEUCINE_DEGRADATION: −0.5231
  NES, VALINE_LEUCINE_AND_ISOLEUCINE_DEGRADATION: −1.732
BRAF mutant melanomas [19]; gene set size 42
  ES, HSA000280_VALINE_LEUCINE_AND_ISOLEUCINE_DEGRADATION: −0.5627
  NES, HSA000280_VALINE_LEUCINE_AND_ISOLEUCINE_DEGRADATION: −1.945
BRAF mutant melanomas [19]; gene set size 55
  ES, OXIDATIVE_PHOSPHORYLATION: −0.5114
  NES, OXIDATIVE_PHOSPHORYLATION: −1.891
BRAF mutant melanomas [19]; gene set size 100
  ES, HSA00190_OXIDATIVE_PHOSPHORYLATION: −0.4531
  NES, HSA00190_OXIDATIVE_PHOSPHORYLATION: −1.845
BRAF mutant melanomas [19]; gene set size 227
  ES, PENG_GLUTAMINE_UP: −0.3896
  NES, PENG_GLUTAMINE_UP: −1.777
[20]
  drop in ATP: 42%
